Data on 65 compounds can be found in patent US11478457B2, “Castration-resistant prostate cancer” (priority 2015, dated 2022).

This assay has as its target T1, UDP-glucose dehydrogenase (Homo sapiens, UniProt O60701).
T1 sequence (O60701 1-494): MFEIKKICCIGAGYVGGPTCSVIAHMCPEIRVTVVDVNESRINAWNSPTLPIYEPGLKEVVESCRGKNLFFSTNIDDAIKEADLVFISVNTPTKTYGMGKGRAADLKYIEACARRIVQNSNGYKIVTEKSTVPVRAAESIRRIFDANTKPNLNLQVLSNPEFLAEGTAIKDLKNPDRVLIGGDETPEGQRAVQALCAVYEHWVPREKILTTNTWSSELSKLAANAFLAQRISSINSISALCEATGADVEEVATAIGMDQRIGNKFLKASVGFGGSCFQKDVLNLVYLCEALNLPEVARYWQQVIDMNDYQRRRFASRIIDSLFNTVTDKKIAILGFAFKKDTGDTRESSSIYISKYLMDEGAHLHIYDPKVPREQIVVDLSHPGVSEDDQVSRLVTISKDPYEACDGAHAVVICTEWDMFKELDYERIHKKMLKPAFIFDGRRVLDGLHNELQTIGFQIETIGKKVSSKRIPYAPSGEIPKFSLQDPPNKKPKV
Nature of the assay: High throughput screening for inhibitors of UDP-glucose dehydrogenase (NADH fluorescence). In kind it is biochemical. Particulars: read-out: POC (Percent of Controls); for inhibition at 25 µg/mL (stock): compound plates 20 μL/well of 25 μg/mL compound in 2.5% DMSO, relative to DMSO negative and UDP-xylose positive controls, higher POC = more inhibitory.

The structures appear in SMILES notation.

With `Nc1ccccc1S(=O)(=O)Nc1cccc2cccnc12`, the inhibition at 25 µg/mL (stock) came out at 72%.
Same read-out and setting: the figure for `O=c1c(O)cc([C@H]2Oc3cc(O)cc(O)c3C[C@H]2O)cc2c([C@H]3Oc4cc(O)cc(O)c4C[C@H]3O)cc(O)c(O)c12` is 83%.
On the same count and under the same terms, as for `O=C(O[C@@H]1Cc2c(O)cc(O)cc2O[C@@H]1c1cc(O)c(O)c(O)c1)c1cc(O)c(O)c(O)c1`, the figure is 76%.
The same measure, in the same setting: as for `O=C(Nc1ccc([N+](=O)[O-])cc1)c1ccc(Br)o1`, the figure is 62%; as for `N#CSC(C#N)Cc1ccccc1` (centres unmarked), 59%; as for `CC(=O)Oc1cc(-c2coc3cc(OC(C)=O)c(OC(C)=O)c(OC(C)=O)c3c2=O)cc(OC(C)=O)c1OC(C)=O`, 98%.
Turning to `Cc1ccccc1-c1nnc(N)s1`, the inhibition at 25 µg/mL (stock) was 51%.
The same measure, in the same setting: as for `COCc1cc(C(C)(C)C)c(O)c(O)c1C(C)(C)C`, the figure is 56%; as for `CN1CCc2c(sc(N)c2C#N)C1`, 55%.
Still for that read-out and setting: the figure for `CCc1cccc(NC(=O)NC2CCCCC2)c1` is 45%; for `CCc1c(C)sc(NC(=O)c2cccc([N+](=O)[O-])c2C)c1C(N)=O` it is 58%; for `Cc1ccc(-c2ccc(CCC(=O)O)o2)cc1` it is 82%.
Still for that read-out and setting: as for `COCCN1C(=O)C(O)=C(C(=O)c2ccc(OC)c(C)c2)C1c1ccncc1` (centres unmarked), the figure is 51%; as for `COc1cc(NC(=O)COc2ccc(C)cc2C)ccc1NC(=O)c1ccco1`, 70%; as for `COc1cc(-c2ccc(NC(=O)c3ccoc3C)c(OC)c2)ccc1NC(=O)c1ccoc1C`, 45%.
As to `Nc1ccc(C(=O)c2ccc(N)c(N)c2)cc1N`, the inhibition at 25 µg/mL (stock) was found to be 46%.
The same measure, in the same setting: the figure for `CCSc1sc(SC#N)cc1SC#N` is 83%; for `CC(C)c1cc2c(c(O)c1O)[C@@]1(C(=O)O)CCCC(C)(C)C1CC2` (some centres unmarked) it is 66%; for `N#CSc1cnc(NC2CCCCC2)s1` it is 66%.
On the same count and under the same terms, as for `O=C(CN1CCCCC1)Nc1ccc(S(=O)(=O)N2CCOCC2)cc1`, the figure is 48%; as for `COc1ccc(-c2nnc(N)o2)cc1`, 86%; as for `Cc1nnc(SC2CC(=O)N(c3ccc(Oc4ccccc4)cc3)C2=O)s1` (centres unmarked), 58%.
The same measure, in the same setting: the figure for `O=C(O)c1cc(O)c(O)c(O)c1` is 71%; for `O=C(Nc1ccc2c(c1)OCCO2)c1cc2ccccc2o1` it is 103%.
Turning to `O=[N+]([O-])c1ccc(SCc2ccco2)c2cccnc12`, the inhibition at 25 µg/mL (stock) worked out at 57%.
Still for that read-out and setting: as for `O=c1c(O)cccc2c([C@H]3Oc4cc(O)cc(O)c4C[C@H]3O)cc(O)c(O)c12`, the figure is 53%.
Same read-out and setting: as for `CC(=O)C1=C(C)NC(SCc2cccc([N+](=O)[O-])c2)=C(C#N)C1c1cccnc1` (centres unmarked), the figure is 51%; as for `NC(=O)c1c(NC(=O)C2CCCO2)sc2c1CCCCCC2` (centres unmarked), 74%.
On the same count and under the same terms, the figure for `COc1ccc(NS(=O)(=O)c2cc(C(=O)Nc3ccc(C(=O)O)cc3)ccc2C)cc1` is 61%; for `O=C1CC(Sc2nnnn2-c2ccccc2)C(=O)N1c1ccc([N+](=O)[O-])cc1` (centres unmarked) it is 73%.
`CCc1c(C)sc(NC(=O)c2ccoc2C)c1C(N)=O`: the inhibition at 25 µg/mL (stock) worked out at 50%.
Same read-out and setting: the figure for `CC(C)(C)C(=O)NCCNc1ccc([N+](=O)[O-])cc1` is 47%; for `N#CSC(C#N)Cc1cccc(Cl)c1` (centres unmarked) it is 74%.
Same read-out and setting: the figure for `Cc1[nH]nc(-c2ccc(O)c(O)c2O)c1Oc1ccccc1` is 46%; for `CCCCC(NC(=O)c1cccc(Br)c1)C(=O)O` (centres unmarked) it is 103%.
Take `NC(=O)c1c(-c2cccs2)csc1N`: the inhibition at 25 µg/mL (stock) amounted to 46%.
The same measure, in the same setting: the figure for `c1ccc(CNc2nc(-c3ccccc3)[n+](-c3ccccc3)s2)cc1` is 106%; for `COc1cc(/C=C(\C)[N+](=O)[O-])cc(OC)c1OC` it is 61%.
Same read-out and setting: as for `O=C1CC(Sc2nc3ccccc3s2)C(=O)N1c1ccccc1I` (centres unmarked), the figure is 58%; as for `CN(C)c1ccc(NC(=O)C2C3C=CC(C3)C2C(=O)O)cc1` (centres unmarked), 56%.
On to `O=C1C(Cl)=C(Cl)C(=O)C(Cl)=C1Cl`, for which the inhibition at 25 µg/mL amounted to 79%.
`CCOc1ccc(N/C(=N/N)c2ccc3ccccc3n2)cc1`: the inhibition at 25 µg/mL (stock) was 66%.
For the compound `O=C(O)COc1cccc(/C=C/[N+](=O)[O-])c1`, the inhibition at 25 µg/mL (stock) turned out to be 67%.
Still for that read-out and setting: the figure for `COc1ccc(-c2ccc(CCC(=O)O)[nH]2)cc1` is 62%; for `Cc1nnc(SC2CC(=O)N(c3ccc(Br)cc3)C2=O)s1` (centres unmarked) it is 47%.
On the same count and under the same terms, the figure for `O=C(Nc1ccc2nc(-c3ccco3)c(-c3ccco3)nc2c1)N1CCOCC1` is 47%.
Same read-out and setting: as for `Cc1cc(C)n(-c2ccc3cccc([N+](=O)[O-])c3n2)n1`, the figure is 88%.
With `Brc1ccc(C2Nc3ccccc3N2)o1`, the inhibition at 25 µg/mL (stock) came out at 65%.
Still for that read-out and setting: as for `Cc1sc(NC(=O)Cc2ccc([N+](=O)[O-])cc2)c(C(N)=O)c1C`, the figure is 75%; as for `CC(=O)NC(CC(=O)c1ccc(Cl)cc1Cl)C(Cl)(Cl)Cl` (centres unmarked), 86%.
Same read-out and setting: the figure for `CC/C(=C/c1ccc(O)c(OC)c1)[N+](=O)[O-]` is 63%; for `O=C(O[C@@H]1Cc2c(O)cc(O)cc2O[C@@H]1c1cc(O)c(O)c(O)c1-c1c([C@H]2Oc3cc(O)cc(O)c3C[C@H]2OC(=O)c2cc(O)c(O)c(O)c2)cc(O)c(O)c1O)c1cc(O)c(O)c(O)c1` it is 73%.
Same read-out and setting: as for `N#CSC(C#N)Cc1ccc([N+](=O)[O-])cc1` (centres unmarked), the figure is 80%; as for `Nc1ccc(S(=O)(=O)c2ccc(N)c(N)c2)cc1N`, 50%.
For `CCN(CC)c1ccc(N)c(C)c1`, the inhibition at 25 µg/mL (stock) was 46%.
On the same count and under the same terms, as for `Cc1cc(O)ccc1NC(=O)c1ccccc1`, the figure is 46%.
Same read-out and setting: as for `O=C(Nc1nc2c(s1)CCCC2)c1cccs1`, the figure is 45%.
Still for that read-out and setting: the figure for `COC(=O)Oc1c(Cl)cc2oc(=O)sc2c1[N+](=O)[O-]` is 73%; for `O=C(O)CCc1ccc(-c2cccs2)o1` [drawing 227] it is 87%.
For `O=C(/C=C/c1ccco1)c1ccc(NC(=O)c2ccco2)cc1`, the inhibition at 25 µg/mL (stock) came out at 55%.
With `O=[N+]([O-])c1ccc2[nH]c(-c3ccco3)nc2c1`, the inhibition at 25 µg/mL (stock) worked out at 46%.
The same measure, in the same setting: as for `CC(C)N(CCC#N)S(=O)(=O)c1ccccc1[N+](=O)[O-]`, the figure is 81%; as for `O=C(OC[C@H]1O[C@H](OC(=O)c2cc(O)c(O)c(OC(=O)c3cc(O)c(O)c(O)c3)c2)[C@H](OC(=O)c2cc(O)c(O)c(OC(=O)c3cc(O)c(O)c(O)c3)c2)[C@@H](OC(=O)c2cc(O)c(O)c(OC(=O)c3cc(O)c(O)c(O)c3)c2)[C@@H]1OC(=O)c1cc(O)c(O)c(OC(=O)c2cc(O)c(O)c(O)c2)c1)c1cc(O)c(O)c(OC(=O)c2cc(O)c(O)c(O)c2)c1`, 69%.
As for `O=c1oc2cc(Br)c(O)c(Br)c2s1`, the inhibition at 25 µg/mL (stock) stood at 51%.
Take `c1ccc(Nc2nc(-c3ccccc3)[n+](-c3ccccc3)s2)cc1`: the inhibition at 25 µg/mL (stock) amounted to 52%.
